Experimental findings from patent publication US20240316165A1, “POLYNUCLEOTIDES ENCODING PROPIONYL-COA CARBOXYLASE ALPHA AND BETA SUBUNITS FOR THE TREATMENT OF PROPIONIC ACIDEMIA” (ModernaTX, Inc., priority 2021, published 2024) are described below.

This series in a line: tissue kinetics of the components of the drug product in rodents. The following applies: tissue (tissue with the maximum mean value; not named), read-out: maximum mean tissue terminal-phase elimination half-life (t1/2) (converted). It is filed as in vivo. On the procedure: An initial dosing interval of q3W is proposed on the basis of the duration of biomarker response observed in pharmacology studies in Peca−/−(A138T) mice. Specifically, at the minimum efficacious dose level of 0.5 mg/kg, decreases in plasma disease biomarkers were sustained for 3 weeks before rebounding toward pretreatment levels in propionic acidemia mice. The potential for drug product accumulation is considered low, with the planned clinical dosing regimen based on the kinetics of the components of the drug product.

As to `CCCCCCCCCOC(=O)CCCCCCCN(CCO)CCCCCCCC(=O)OC(CCCCCCCC)CCCCCCCC` [Compound II], the half-life is 54.4 h.
